# Reference: ChEMBL document CHEMBL1150515, “Synthesis and structure-activity relationships of novel THF 1-methylcarbapenems II” (1997)
# System: Acinetobacter calcoaceticus
# Assay: Antimicrobial activity against Acinetobacter calcoaceticus (GC 756)
# Format: functional
# Conditions: not given
row,SMILES,MIC
1,C[C@@H](O)[C@H]1C(=O)N2C(C(=O)[O-])=C(SC3COC(CN)C3)[C@H](C)[C@H]12.[Na+] (stereo not given in full),1 µg/mL
2,C[C@@H](O)[C@H]1C(=O)N2C(C(=O)[O-])=C(S[C@@H]3CCO[C@@H]3CN)[C@H](C)[C@H]12.[Na+],2 µg/mL

# System: not listed separately
# Assay: Antimicrobial activity against Citrobacter freundii (GC 2211)
# Format: functional
# Conditions: not given
row,SMILES,MIC
1,C[C@@H](O)[C@H]1C(=O)N2C(C(=O)[O-])=C(SC3COC(CN)C3)[C@H](C)[C@H]12.[Na+] (stereo not given in full),0.06 µg/mL
2,C[C@@H](O)[C@H]1C(=O)N2C(C(=O)[O-])=C(S[C@@H]3CCO[C@@H]3CN)[C@H](C)[C@H]12.[Na+],≤ 0.06 µg/mL

# Molecular target: T1, Dipeptidase 1 (Sus scrofa) (UniProt P22412)
# T1 sequence (whole entry): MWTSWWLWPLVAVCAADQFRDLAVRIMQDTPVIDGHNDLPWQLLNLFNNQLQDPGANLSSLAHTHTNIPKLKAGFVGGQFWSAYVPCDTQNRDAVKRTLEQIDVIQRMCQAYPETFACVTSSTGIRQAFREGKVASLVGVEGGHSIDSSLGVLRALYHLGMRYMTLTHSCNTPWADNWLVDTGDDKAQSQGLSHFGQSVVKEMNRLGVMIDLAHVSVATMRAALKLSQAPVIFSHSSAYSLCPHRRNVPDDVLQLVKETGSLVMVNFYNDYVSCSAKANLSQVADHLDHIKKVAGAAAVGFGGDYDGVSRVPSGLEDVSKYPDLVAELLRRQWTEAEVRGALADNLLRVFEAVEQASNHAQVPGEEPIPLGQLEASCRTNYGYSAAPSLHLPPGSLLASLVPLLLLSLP
# Assay: Relative hydrolysis to that of imipenem was determined by hog renal dehydropeptidase
# Conditions: not given
row,SMILES,Relative hydrolysis
1,C[C@@H](O)[C@H]1C(=O)N2C(C(=O)[O-])=C(SC3COC(CN)C3)[C@H](C)[C@H]12.[Na+] (stereo not given in full),19
2,C[C@@H](O)[C@H]1C(=O)N2C(C(=O)[O-])=C(S[C@@H]3CCO[C@@H]3CN)[C@H](C)[C@H]12.[Na+],8.5

# System: not listed separately
# Assay: Antimicrobial activity against Enterococcus faecium (GC 1182)
# Format: functional
# Conditions: not given
row,SMILES,MIC
1,C[C@@H](O)[C@H]1C(=O)N2C(C(=O)[O-])=C(SC3COC(CN)C3)[C@H](C)[C@H]12.[Na+] (stereo not given in full),> 128 µg/mL
2,C[C@@H](O)[C@H]1C(=O)N2C(C(=O)[O-])=C(S[C@@H]3CCO[C@@H]3CN)[C@H](C)[C@H]12.[Na+],64 µg/mL

# System: not listed separately
# Assay: Antimicrobial activity against Enterobacter cloacae (GC 2209)
# Format: functional
# Conditions: not given
row,SMILES,MIC
1,C[C@@H](O)[C@H]1C(=O)N2C(C(=O)[O-])=C(SC3COC(CN)C3)[C@H](C)[C@H]12.[Na+] (stereo not given in full),≤ 0.06 µg/mL
2,C[C@@H](O)[C@H]1C(=O)N2C(C(=O)[O-])=C(S[C@@H]3CCO[C@@H]3CN)[C@H](C)[C@H]12.[Na+],≤ 0.06 µg/mL

# System: not listed separately
# Assay: Antimicrobial activity against Enterococcus faecalis (GC 842)
# Format: functional
# Conditions: not given
row,SMILES,MIC
1,C[C@@H](O)[C@H]1C(=O)N2C(C(=O)[O-])=C(SC3COC(CN)C3)[C@H](C)[C@H]12.[Na+] (stereo not given in full),2 µg/mL
2,C[C@@H](O)[C@H]1C(=O)N2C(C(=O)[O-])=C(S[C@@H]3CCO[C@@H]3CN)[C@H](C)[C@H]12.[Na+],0.5 µg/mL

# System: Escherichia coli
# Assay: Antimicrobial activity against Escherichia coli (ATCC 25922)
# Format: functional
# Conditions: not given
row,SMILES,MIC
1,C[C@@H](O)[C@H]1C(=O)N2C(C(=O)[O-])=C(SC3COC(CN)C3)[C@H](C)[C@H]12.[Na+] (stereo not given in full),≤ 0.06 µg/mL
2,C[C@@H](O)[C@H]1C(=O)N2C(C(=O)[O-])=C(S[C@@H]3CCO[C@@H]3CN)[C@H](C)[C@H]12.[Na+],≤ 0.06 µg/mL

# System: Escherichia coli
# Assay: Antimicrobial activity against Escherichia coli (GC 1792)
# Format: functional
# Conditions: not given
row,SMILES,MIC
1,C[C@@H](O)[C@H]1C(=O)N2C(C(=O)[O-])=C(SC3COC(CN)C3)[C@H](C)[C@H]12.[Na+] (stereo not given in full),0.06 µg/mL
2,C[C@@H](O)[C@H]1C(=O)N2C(C(=O)[O-])=C(S[C@@H]3CCO[C@@H]3CN)[C@H](C)[C@H]12.[Na+],≤ 0.06 µg/mL

# System: Escherichia coli
# Assay: Antimicrobial activity against Escherichia coli (GC 2205)
# Format: functional
# Conditions: not given
row,SMILES,MIC
1,C[C@@H](O)[C@H]1C(=O)N2C(C(=O)[O-])=C(SC3COC(CN)C3)[C@H](C)[C@H]12.[Na+] (stereo not given in full),≤ 0.06 µg/mL
2,C[C@@H](O)[C@H]1C(=O)N2C(C(=O)[O-])=C(S[C@@H]3CCO[C@@H]3CN)[C@H](C)[C@H]12.[Na+],≤ 0.06 µg/mL

# System: not listed separately
# Assay: Antimicrobial activity against Morganella morganii (GC 2213)
# Format: functional
# Conditions: not given
row,SMILES,MIC
1,C[C@@H](O)[C@H]1C(=O)N2C(C(=O)[O-])=C(SC3COC(CN)C3)[C@H](C)[C@H]12.[Na+] (stereo not given in full),0.25 µg/mL
2,C[C@@H](O)[C@H]1C(=O)N2C(C(=O)[O-])=C(S[C@@H]3CCO[C@@H]3CN)[C@H](C)[C@H]12.[Na+],0.5 µg/mL

# System: Pseudomonas aeruginosa
# Assay: Antimicrobial activity against Pseudomonas aeruginosa (ATCC 27853)
# Format: functional
# Conditions: not given
row,SMILES,MIC
1,C[C@@H](O)[C@H]1C(=O)N2C(C(=O)[O-])=C(SC3COC(CN)C3)[C@H](C)[C@H]12.[Na+] (stereo not given in full),4 µg/mL
2,C[C@@H](O)[C@H]1C(=O)N2C(C(=O)[O-])=C(S[C@@H]3CCO[C@@H]3CN)[C@H](C)[C@H]12.[Na+],8 µg/mL

# System: Pseudomonas aeruginosa
# Assay: Antimicrobial activity against Pseudomonas aeruginosa (GC 1544 OprD)
# Format: functional
# Conditions: not given
row,SMILES,MIC
1,C[C@@H](O)[C@H]1C(=O)N2C(C(=O)[O-])=C(SC3COC(CN)C3)[C@H](C)[C@H]12.[Na+] (stereo not given in full),8 µg/mL
2,C[C@@H](O)[C@H]1C(=O)N2C(C(=O)[O-])=C(S[C@@H]3CCO[C@@H]3CN)[C@H](C)[C@H]12.[Na+],16 µg/mL

# System: Stenotrophomonas maltophilia
# Assay: The compound was evaluated for the antimicrobial activity against Xanthomonas maltophilia (GC 562)
# Format: functional
# Conditions: not given
row,SMILES,MIC
1,C[C@@H](O)[C@H]1C(=O)N2C(C(=O)[O-])=C(SC3COC(CN)C3)[C@H](C)[C@H]12.[Na+] (stereo not given in full),> 128 µg/mL

# System: Staphylococcus aureus
# Assay: Antimicrobial activity against Staphylococcus aureus (ATCC 29213)
# Format: functional
# Conditions: not given
row,SMILES,MIC
1,C[C@@H](O)[C@H]1C(=O)N2C(C(=O)[O-])=C(S[C@@H]3CCO[C@@H]3CN)[C@H](C)[C@H]12.[Na+],≤ 0.06 µg/mL

# System: Staphylococcus aureus
# Assay: Antimicrobial activity against methicillin - resistant Staphylococcus aureus (GC 2220)
# Format: functional
# Conditions: not given
row,SMILES,MIC
1,C[C@@H](O)[C@H]1C(=O)N2C(C(=O)[O-])=C(SC3COC(CN)C3)[C@H](C)[C@H]12.[Na+] (stereo not given in full),8 µg/mL
2,C[C@@H](O)[C@H]1C(=O)N2C(C(=O)[O-])=C(S[C@@H]3CCO[C@@H]3CN)[C@H](C)[C@H]12.[Na+],1 µg/mL

# System: not listed separately
# Assay: Antimicrobial activity against Xanthomonas maltophilia (GC 562)
# Format: functional
# Conditions: Stenotrophomonas maltophilia
row,SMILES,MIC
1,C[C@@H](O)[C@H]1C(=O)N2C(C(=O)[O-])=C(S[C@@H]3CCO[C@@H]3CN)[C@H](C)[C@H]12.[Na+],> 128 µg/mL

# System: Staphylococcus aureus
# Assay: The compound was evaluated for the antimicrobial activity against Staphylococcus aureus (ATCC 29213)
# Format: functional
# Conditions: not given
row,SMILES,MIC
1,C[C@@H](O)[C@H]1C(=O)N2C(C(=O)[O-])=C(SC3COC(CN)C3)[C@H](C)[C@H]12.[Na+] (stereo not given in full),≤ 0.06 µg/mL
